The text below walks through data of patent publication US4259336A, “4-Hydroxy-2H-[1]-benzothieno [2,3-e]-1,2-thiazine-3-carboxamide-1,1-dioxides and salts thereof” (Boehringer Ingelheim GmbH, priority 1978, dated 1981).

Broadly, the EC50 is the midpoint of the concentration-response curve. For orientation: LD50 means the dose expected to kill half of the subjects tested. Low readings indicate greater toxicity, high ones lower toxicity.

Where two headings read alike, the source gives them in different places.

Data set [1] concerns the target T1, prostaglandin synthetases (Bos taurus, UniProt O62664).
T1 construct: isolated as a microsomal extract from bovine seminal vesicles; from tissue; host or cells: bovine seminal vesicles (microsomal extract)
T1 sequence (O62664 25-600): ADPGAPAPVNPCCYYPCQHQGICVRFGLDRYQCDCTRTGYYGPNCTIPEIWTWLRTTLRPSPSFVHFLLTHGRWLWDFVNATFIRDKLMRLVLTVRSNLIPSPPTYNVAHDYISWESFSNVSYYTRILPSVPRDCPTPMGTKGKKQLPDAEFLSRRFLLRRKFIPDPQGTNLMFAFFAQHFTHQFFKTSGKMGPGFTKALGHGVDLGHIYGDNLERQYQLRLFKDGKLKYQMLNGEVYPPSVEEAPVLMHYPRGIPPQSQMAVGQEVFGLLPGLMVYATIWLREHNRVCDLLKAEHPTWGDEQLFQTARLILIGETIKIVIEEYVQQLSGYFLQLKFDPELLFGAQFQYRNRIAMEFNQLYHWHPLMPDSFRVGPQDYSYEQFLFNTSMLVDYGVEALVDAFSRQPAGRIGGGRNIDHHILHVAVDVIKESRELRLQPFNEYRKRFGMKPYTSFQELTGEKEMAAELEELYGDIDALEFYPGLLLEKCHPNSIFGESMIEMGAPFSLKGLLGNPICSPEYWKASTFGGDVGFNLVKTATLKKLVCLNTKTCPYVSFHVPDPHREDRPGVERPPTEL
The data set can be described thus: Anti-inflammatory activity: inhibition of prostaglandin biosynthesis (prostaglandin synthetases, microsomal extract from bovine seminal vesicles). The format is biochemical. As to conditions: 14C-arachidonic acid substrate, read-out: EC50 in mol (50% decrease in the amount of prostaglandins). How it is done: Therefore, the anti-inflammatory activity was determined as the activity against the prostaglandin synthetases:
^14 C-arachidonic acid served as the substrate. The prostaglandins biosynthetisized therefrom were separated chromatographically from the ^14 C-arachidonic acid, and the remaining substrate and product were measured radiochemically.

Data set [2] has as its system thrombocyte aggregation in platelet-rich plasma of healthy test persons (collagen). The data set can be described thus: Inhibition of blood-platelet aggregation (Born test), collagen-induced, platelet-rich plasma. Particulars: Homo sapiens, read-out: Percentage change in light permeability of plasma (Born test); for inhibition at 1 µM: 10^-6 mol/liter; for inhibition at 20 µM: 2.10^-5 mol/liter; for inhibition at 2 µM: 2.10^-6 mol/liter; for inhibition at 0.2 µM: 2.10^-7 mol/liter. The format is cell-based, healthy test persons (human). As for the experimental part: The decrease in the optical density of platelet suspensions was measured photometrically and recorded after the addition of collagen. From the angle of inclination of the density curve the velocity of aggregation was estimated. The optical density was taken as the point on the curve where the most light was transmitted. The doses of collagen were chosen so as to be sufficient to produce irreversible aggregation. […] Commercial collagen sold by Hormonchemie, Munich, Germany, was used.

A further data set deals with rats. The data set can be described thus: Acute toxicity, peroral, rats. The format is in vivo. As to conditions: 100 mg/kg p.o., observed 24 hours. As for the experimental part:
(§1) The acute toxicity was determined in rats of both sexes (1:1) with a body weight of 120-150 gm. The test compound was perorally administered as a suspension in 1% methyl-cellulose (1 ml/100gm animal) by means of an esophageal sound.

The nature of data set [3]: Acute toxicity, peroral, rats. The data set is classed as in vivo. As to conditions: rat, in vivo, po, suspension in 1% methyl-cellulose, observed 24 hours. As for the experimental part:
as §1

[4] abbreviates: 10^-5 mol/liter, collagen, =% decrease in aggregation vs control.
[5] abbreviates: collagen, =% decrease in aggregation vs control.

For the compound `CN1C(C(=O)Nc2nccs2)=C(O)c2sc3ccccc3c2S1(=O)=O` [A, 4-Hydroxy-2-methyl-N-(2-thiazolyl)-2H-[1] benzothieno-[2,3-e]-1,2-thiazine-3-carboxamide-1,1-dioxide], in data set [1] (DMSO 2%), the EC50 came to 39 nM. Moreover, the inhibition at 10 µM in data set [2] (setting [4]) was found to be 94%. Further, the inhibition at 1 µM in data set [2] (setting [5]) is 73%. For the same compound, the inhibition at 0.1 µM in data set [2] (10^-7 mol/liter, collagen, =% decrease in aggregation vs control) is 14%. Besides, in the data set with rats, the animals died is 0 out of 10. The LD50 at 24 h in data set [3] is > 100 mg/kg.
For `Cc1cccc(NC(=O)C2=C(O)c3sc4ccccc4c3S(=O)(=O)N2C)n1` [B, 4-Hydroxy-2-methyl-N-(6-methyl-2-pyridyl)-2H-[1] benzothieno [2,3-e]-1,2-thiazine-3-carboxamide-1,1-dioxide], the inhibition at 4 µM in data set [2] (4.10^-6 mol/liter, collagen, =% decrease in aggregation vs control) came out at 100%. The inhibition at 0.4 µM in data set [2] (4.10^-7 mol/liter, collagen, =% decrease in aggregation vs control) was 71%.
In the case of `Cc1csc(NC(=O)C2=C(O)c3sc4ccccc4c3S(=O)(=O)N2C)n1` [C, 4-Hydroxy-2-methyl-N-(4-methyl-2-thiazolyl)-2H-[1] benzothieno [2,3-e]-1,2-thiazine-3-carboxamide-1,1-dioxide], the concentration for a half-maximal effect (EC50) in data set [1] (DMSO 2%) was determined as 21 nM. For the same compound, the inhibition at 10 µM in data set [2] (setting [4]) worked out at 93%. Besides, in data set [2] (setting [5]), the inhibition at 1 µM was 57%. Also, in the data set with rats, the animals died was 0 out of 10. In addition, the LD50 at 24 h in data set [3] was > 100 mg/kg.
Consider `Cc1ccnc(NC(=O)C2=C(O)c3sc4ccccc4c3S(=O)(=O)N2C)c1` [D, 4-Hydroxy-2-methyl-N-(4-methyl-2-pyridyl)-2H-[1]-benzothieno-[2,3-e]-1,2-thiazine-3-carboxamide-1,1-dioxide], for which, in data set [2] (setting [5]), the inhibition at 20 µM came to 88%, the inhibition at 2 µM came to 60% and the inhibition at 0.2 µM was determined as 19%.
Regarding `Cc1ccnc(NC(=O)C2=C(O)c3sc4cc(C)ccc4c3S(=O)(=O)N2C)c1` [E, 2,7-Dimethyl-4-hydroxy-N-(4-methyl-2-pyridyl)-2H-[1]-benzothieno [2,3-e]-1,2-thiazine-3-carboxamide-1,1-dioxide], in data set [2] (setting [5]), the inhibition at 20 µM came out at 72% and the inhibition at 2 µM was determined as 34%.
As for `Cc1ccc2c3c(sc2c1)C(O)=C(C(=O)Nc1cccc(C)n1)N(C)S3(=O)=O` [F, 2,7-Dimethyl-4-hydroxy-N-(6-methyl-2-pyridyl)-2H-[1]-benzothieno [2,3-e]-1,2-thiazine-3-carboxamide-1,1-dioxide], in data set [2] (setting [5]), the inhibition at 20 µM worked out at 90%, the inhibition at 2 µM stood at 77% and the inhibition at 0.2 µM turned out to be 30%.
For `Cc1ccnc(NC(=O)C2=C(O)c3sc4cc(Cl)ccc4c3S(=O)(=O)N2C)c1` [G, 7-Chloro-4-hydroxy-2-methyl-N-(4-methyl-2-pyridyl)-2H-[1]-benzothieno [2,3-e]-1,2-thiazine-3-carboxamide-1,1-dioxide], in data set [2] (setting [5]), the inhibition at 20 µM is 66% and the inhibition at 2 µM was determined as 33%.
`Cc1cccc(NC(=O)C2=C(O)c3sc4cc(Cl)ccc4c3S(=O)(=O)N2C)n1` [H, 7-Chloro-4-hydroxy-2-methyl-N-(6-methyl-2-pyridyl)-2H-[1] benzothieno [2,3-e]-1,2-thiazine-3-carboxamide-1,1-dioxide]: in data set [2] (setting [5]), the inhibition at 20 µM is 89%, the inhibition at 2 µM came to 88% and the inhibition at 0.2 µM was found to be 33%.
`CN1C(C(=O)Nc2nc3ccccc3s2)=C(O)c2sc3ccccc3c2S1(=O)=O` [I, N-(2-Benzothiazolyl)-4-hydroxy-2-methyl-2H-[1] benzothieno [2,3-e]-1,2-thiazine-3-carboxamide-1,1-dioxide]: in data set [1] (DMSO 2%), the EC50 amounted to 22 nM. Also, the animals died with rats was 0 out of 10. In addition, the LD50 at 24 h in data set [3] is > 100 mg/kg.
As for `CN1C(C(=O)Nc2ncc(Cl)s2)=C(O)c2sc3ccccc3c2S1(=O)=O` [J, N-(5-Chloro-2-thiazolyl)-4-hydroxy-2-methyl-2H-[1] benzothieno [2,3-e]-1,2-thiazine-3-carboxamide-1,1-dioxide], the EC50 in data set [1] (DMSO 2%) was 47 nM. Also, in the data set with rats, the animals died is 0 out of 10. The LD50 at 24 h in data set [3] is > 100 mg/kg.
With `Cc1nc(NC(=O)C2=C(O)c3sc4ccccc4c3S(=O)(=O)N2C)sc1C` [K, N-(4,5-Dimethyl-2-thiazolyl)-4-hydroxy-2-methyl-2H-[1]-benzothieno [2,3-e]-1,2-thiazine-3-carboxamide-1,1-dioxide], the EC50 in data set [1] (DMSO 10%) came out at 250 nM. Also, the animals died in the data set with rats was 0 out of 10. In addition, the LD50 at 24 h in data set [3] is > 100 mg/kg.
For `CC(=O)Oc1ccccc1C(=O)O` [V, Acetylsalicyclic acid, reference compound], in data set [2], the inhibition at 10 µM turned out to be 13% and the inhibition at 30 µM was found to be 45%.
For the compound `CN1C(C(=O)Nc2nccs2)=C(O)c2ccccc2S1(=O)=O` [W, Sudoxicam, reference compound], in data set [1] (DMSO 2%), the 50% effective concentration (EC50) worked out at 7000 nM.
